Reference: ChEMBL document CHEMBL1137048, “Design and evaluation of novel nonsteroidal dissociating glucocorticoid receptor ligands” (Bioorg Med Chem Lett, 2004)
pEC50, pIC50: −log10 of the molar value.

What was measured:
[1] = biological target: T1, Glucocorticoid receptor (Rattus norvegicus, UniProt P06536); experiment: Repression of NF-kappaB-luciferase reporter activity in TPA stimulated U2OS cells expressing rat glucocorticoid receptor; format: functional, cell-based
T1 sequence (P06536 whole entry): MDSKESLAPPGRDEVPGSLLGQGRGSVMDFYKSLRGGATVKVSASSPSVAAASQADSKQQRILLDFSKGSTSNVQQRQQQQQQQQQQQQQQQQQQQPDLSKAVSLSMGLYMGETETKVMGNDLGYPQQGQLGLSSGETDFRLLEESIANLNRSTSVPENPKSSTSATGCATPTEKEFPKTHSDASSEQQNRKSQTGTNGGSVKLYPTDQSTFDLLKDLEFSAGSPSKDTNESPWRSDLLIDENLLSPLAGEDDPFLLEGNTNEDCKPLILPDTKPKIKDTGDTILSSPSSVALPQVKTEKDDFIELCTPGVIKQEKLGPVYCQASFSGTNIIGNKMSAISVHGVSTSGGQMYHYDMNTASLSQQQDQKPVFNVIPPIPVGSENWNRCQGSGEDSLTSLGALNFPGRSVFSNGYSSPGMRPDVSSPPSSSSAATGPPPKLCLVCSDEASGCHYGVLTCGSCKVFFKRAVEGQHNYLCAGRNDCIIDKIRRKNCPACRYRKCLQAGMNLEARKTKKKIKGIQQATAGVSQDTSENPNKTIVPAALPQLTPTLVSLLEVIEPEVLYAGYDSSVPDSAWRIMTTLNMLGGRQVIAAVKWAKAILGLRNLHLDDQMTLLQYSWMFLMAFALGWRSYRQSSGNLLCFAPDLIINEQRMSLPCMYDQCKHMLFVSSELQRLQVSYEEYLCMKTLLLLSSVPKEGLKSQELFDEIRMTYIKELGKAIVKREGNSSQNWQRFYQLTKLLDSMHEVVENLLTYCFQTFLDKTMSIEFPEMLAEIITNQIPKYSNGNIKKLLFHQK

[2] = biological target: T1, Glucocorticoid receptor; experiment: Repression of AP1-luciferase reporter activity in TPA-stimulated U2OS cells expressing rat glucocorticoid receptor; format: functional, cell-based
[3] = biological target: T1, Glucocorticoid receptor; experiment: Inhibition against U2OS cells expressing rat Glucocorticoid receptor; format: cell-based
[4] = biological target: T1, Glucocorticoid receptor; experiment: Effective concentration against MMTV in transactivation assay in U2OS cells expressing rat GR; format: functional, cell-based
[5] = biological target: T2, Glucocorticoid receptor (Homo sapiens, UniProt P04150); experiment: Binding affinity for recombinant human glucocorticoid receptor
T2 sequence (P04150 whole entry): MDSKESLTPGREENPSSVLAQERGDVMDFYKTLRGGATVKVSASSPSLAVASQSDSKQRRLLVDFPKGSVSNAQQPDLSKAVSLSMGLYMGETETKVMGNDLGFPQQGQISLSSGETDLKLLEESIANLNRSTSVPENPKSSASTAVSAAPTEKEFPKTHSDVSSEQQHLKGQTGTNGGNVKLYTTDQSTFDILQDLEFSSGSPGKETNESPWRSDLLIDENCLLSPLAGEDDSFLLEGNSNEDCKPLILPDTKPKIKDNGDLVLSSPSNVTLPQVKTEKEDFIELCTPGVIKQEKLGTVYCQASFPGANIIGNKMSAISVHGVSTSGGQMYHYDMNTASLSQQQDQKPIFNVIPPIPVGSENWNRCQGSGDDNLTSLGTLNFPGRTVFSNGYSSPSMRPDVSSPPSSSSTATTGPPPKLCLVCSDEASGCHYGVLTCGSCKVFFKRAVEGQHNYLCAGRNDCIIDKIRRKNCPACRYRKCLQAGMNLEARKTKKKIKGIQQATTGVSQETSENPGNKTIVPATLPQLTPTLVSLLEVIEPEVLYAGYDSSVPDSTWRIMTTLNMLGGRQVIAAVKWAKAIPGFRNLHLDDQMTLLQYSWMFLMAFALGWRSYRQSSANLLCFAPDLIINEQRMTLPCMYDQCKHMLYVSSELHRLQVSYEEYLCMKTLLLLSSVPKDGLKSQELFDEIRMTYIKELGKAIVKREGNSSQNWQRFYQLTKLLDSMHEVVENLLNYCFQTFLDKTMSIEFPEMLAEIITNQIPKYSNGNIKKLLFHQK

[6] = biological target: T2, Glucocorticoid receptor; experiment: Effective concentration in CV-1 cell transactivation assay; format: functional, cell-based

Row | Compound | pEC50 [1] | pEC50 [2] | pIC50 [3] | pEC50 [4] | pIC50 [5] | pEC50 [6]
1 | C[C@]12Cc3cnn(-c4ccc(F)cc4)c3C=C1CCC[C@@H]2C(O)c1ccccc1 (stereo partly drawn) | 8.40 | 8.52 | 8.10 | 8.52 | – | –
2 | C[C@]12Cc3cnn(-c4ccc(F)cc4)c3C=C1CCC[C@@H]2C(O)c1ccc(Oc2ccccc2)cc1 (stereo partly drawn) | – | – | 7.81 | – | – | –
3 | COc1cc(C(O)C2CCCC3=CC(=O)CCC32C)cc(OC)c1OC (stereo not drawn) | – | – | – | – | < 5.70 | –
4 | CCCCCCCCC(O)[C@H]1CCCC2=Cc3c(cnn3-c3ccc(F)cc3)C[C@@]21C (stereo partly drawn) | 8.40 | 8.22 | 8.31 | 8.40 | – | –
5 | C[C@]12Cc3cnn(-c4ccc(F)cc4)c3C=C1CCC[C@@H]2C(O)c1cccc(O)c1 (stereo partly drawn) | 8.52 | 8.52 | 8.28 | 8.52 | – | –
6 | CCCCC(O)[C@H]1CCCC2=Cc3c(cnn3-c3ccc(F)cc3)C[C@@]21C (stereo partly drawn) | 8.52 | 8.10 | 9.15 | 8.30 | – | –
7 | C[C@]12Cc3cnn(-c4ccc(F)cc4)c3C=C1CCC[C@@H]2C(O)CCc1ccccc1 (stereo partly drawn) | 8.52 | 8.15 | 8.07 | 7.96 | – | –
8 | CC12CCC(=O)C=C1CCCC2C(O)c1ccccc1 (stereo not drawn) | – | – | – | – | 5.68 | –
9 | C[C@]12Cc3cnn(-c4ccc(F)cc4)c3C=C1CCC[C@@H]2C(O)c1ccc(O)cc1 (stereo partly drawn) | 7.92 | 7.80 | 8.18 | 7.70 | – | –
10 | Cc1ccc(C(O)[C@H]2CCCC3=Cc4c(cnn4-c4ccc(F)cc4)C[C@@]32C)cc1 (stereo partly drawn) | 8.10 | 8.52 | 8.60 | 8.40 | – | –
11 | C[C@]12Cc3cnn(-c4ccc(F)cc4)c3C=C1CCC[C@@H]2C(O)c1ccc(C(F)(F)F)cc1 (stereo partly drawn) | 7.62 | 7.51 | 7.85 | 7.51 | – | –
12 | C[C@]12Cc3cnn(-c4ccc(F)cc4)c3C=C1CCC[C@@H]2C(O)Cc1ccccc1 (stereo partly drawn) | 7.96 | 7.77 | 8.26 | 8.05 | – | –
13 | C[C@]12Cc3cnn(-c4ccc(F)cc4)c3C=C1CCC[C@@H]2C(O)c1ccc(Cl)cc1 (stereo partly drawn) | 8.40 | 8.52 | 8.15 | 8.05 | – | –
14 | C[C@]12Cc3cnn(-c4ccc(F)cc4)c3C=C1CCC[C@@H]2C(O)c1csc2ccccc12 (stereo partly drawn) | 7.66 | 8.74 | 8.74 | 7.70 | – | –
15 | COc1cccc(C(O)[C@H]2CCCC3=Cc4c(cnn4-c4ccc(F)cc4)C[C@@]32C)c1 (stereo partly drawn) | 8.52 | 7.72 | 8.64 | 8.40 | – | –
16 | CC12CCC(=O)C=C1CCCC2C(O)c1csc2ccccc12 (stereo not drawn) | – | – | – | – | 6.78 | –
17 | C[C@@H]1C[C@H]2C3CCC4=CC(=O)C=C[C@]4(C)[C@@]3(F)[C@@H](O)C[C@]2(C)[C@@]1(O)C(=O)O (stereo partly drawn) | 9.52 | 9.70 | 8.85 | 9.70 | 8.30 | 8.25
